Measured values from ChEMBL document CHEMBL1148099, “New myrsinol-related polyfunctional pentacyclic diterpene esters from roots of Euphorbia prolifera” (J Nat Prod, 1995).

Assay: Skin irritant activity in mouse ear assessed as irritant units per ear after 24 hrs
Format: ADME, tissue-based
Details: topical_or_ocular

Structure (SMILES)	Activity [µg]
CCC(=O)OC1C(C)CC2(OC(C)=O)C1[C@@H](OC(C)=O)[C@@]13CO[C@@](C)(C2OC(C)=O)C1C1C(C[C@]1(C)OC(C)=O)C(OC(=O)C(C)C)C3=O (some centres not stated)	> 1000
CCC(=O)OC1C(C)CC2(OC(C)=O)C1[C@@H](OC(C)=O)[C@@]13CO[C@@](C)(C2OC(C)=O)C1C1C(C[C@]1(C)OC(C)=O)C(OC(=O)c1ccccc1)C3=O (some centres not stated)	> 1000
